Experimental data from patent US20230057891A1, “EGFR INHIBITORS” (Hoffmann-La Roche Inc., priority 2019, published 2023).

Target: T1, EGFR TMLRCS (T790M/L858R/C797S) (Homo sapiens, UniProt P00533, C797S/L858R/T790M)
T1 construct: host or cells: BaF3-TMLRCS cell line
Test: HTRF Phospho EGFR TMLRCS assay (cellular), BaF3-TMLRCS cells
Type: cell-based
Details: BaF3-TMLRCS cell line, 4 hours incubation
Description: HTRF Phospho EGFR TMLRCS Assay (Cellular)
BaF3-TMLRCS cell line were obtained from Crownbio (San Diego, Calif., USA). Cells were maintained at 37° C., 5% CO2 in RPMI ATCC (Gibco 31870)+2 mM Glutamine+0.5 μg/ml Puromycin supplemented with 10% fetal bovine serum (FBS) (Gibco).
Cells are transferred as above to Greiner Bio-One, Nr. 784-08 micro-titerplate at 20000 cells/well in 12.5 μl of growth medium/well after the plates had been pre-filled with 12.5 nl of DMSO solutions of the to be tested compound (in dose response) or DMSO only. After spinning the plates at 300×g for 30 seconds the cells were incubated for 4 hours at 37 C, 5% CO2, 95% humidity. The cells were lysed by adding to the compound mix 4 µl/well of the supplemented lysis buffer (Cis-bio, Phospho-EGFR HTRF kit, 64EG1PEH), followed by incubation for 30 min at room temperature with shaking (400 rpm). The plates were then frozen and stored overnight at −80 C. On the next day and after thawing the plates, 4 μl of a mixture of anti-Phospho-EGFR Cryptate and of anti-Phospho-EGFR-d2 antibody solutions prepared in the supplied detection buffer was added to each well. The lidded plates were then incubated for 4 h at room temperature before reading the fluorescence emission at 616 and 665 nm using an Envision reader (Perkin Elmer). Data was analyzed in similar fashion as above using the normalized ratio of the 665 to 616 signals multiplied by 10000.

T1 sequence (P00533 25-1210 T790M/C797S/L858R): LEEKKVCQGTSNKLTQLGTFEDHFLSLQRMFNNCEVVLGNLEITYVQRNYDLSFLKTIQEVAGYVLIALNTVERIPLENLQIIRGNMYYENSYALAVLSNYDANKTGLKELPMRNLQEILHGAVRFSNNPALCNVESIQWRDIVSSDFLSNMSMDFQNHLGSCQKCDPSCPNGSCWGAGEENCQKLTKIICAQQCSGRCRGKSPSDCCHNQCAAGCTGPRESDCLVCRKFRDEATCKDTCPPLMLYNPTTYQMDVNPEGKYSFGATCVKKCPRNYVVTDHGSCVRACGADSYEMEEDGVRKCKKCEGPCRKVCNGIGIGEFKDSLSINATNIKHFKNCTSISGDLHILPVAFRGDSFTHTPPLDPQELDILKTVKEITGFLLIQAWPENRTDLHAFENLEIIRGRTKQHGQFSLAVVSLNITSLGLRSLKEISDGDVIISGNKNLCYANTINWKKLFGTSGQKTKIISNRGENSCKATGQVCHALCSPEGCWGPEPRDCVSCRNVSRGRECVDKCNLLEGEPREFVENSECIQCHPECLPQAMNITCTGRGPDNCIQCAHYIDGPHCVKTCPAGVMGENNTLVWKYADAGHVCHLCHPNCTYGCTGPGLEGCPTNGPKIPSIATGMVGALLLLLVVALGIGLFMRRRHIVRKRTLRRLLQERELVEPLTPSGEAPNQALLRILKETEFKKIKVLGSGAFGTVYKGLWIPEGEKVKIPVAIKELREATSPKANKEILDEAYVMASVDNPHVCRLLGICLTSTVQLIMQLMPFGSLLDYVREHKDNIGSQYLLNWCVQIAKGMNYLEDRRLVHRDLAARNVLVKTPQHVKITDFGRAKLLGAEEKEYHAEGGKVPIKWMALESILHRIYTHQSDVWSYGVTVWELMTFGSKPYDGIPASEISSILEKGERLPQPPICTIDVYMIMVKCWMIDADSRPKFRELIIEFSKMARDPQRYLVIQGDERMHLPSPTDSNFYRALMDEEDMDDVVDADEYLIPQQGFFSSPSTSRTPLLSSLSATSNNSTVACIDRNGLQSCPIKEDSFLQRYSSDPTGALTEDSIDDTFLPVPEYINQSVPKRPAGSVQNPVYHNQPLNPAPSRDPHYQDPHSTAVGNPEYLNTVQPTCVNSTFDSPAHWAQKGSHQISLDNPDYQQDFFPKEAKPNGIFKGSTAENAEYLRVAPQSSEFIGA

Row | SMILES | IC50 [nM]
1 | O=C(Nc1nccs1)C(c1ncn2c1CCC2)N1Cc2c(Cl)cc(-c3ccc(C45CC(CN6CCC(CO)CC6)(C4)C5)cc3)cc2C1=O (racemic) [Example 1, (2RS)-2-(6,7-Dihydro-5H-pyrrolo[1,2-c]imidazol-1-yl)-2-[4-chloro-6-[4-[3-[[4-(hydroxymethyl)-1-piperidyl]methyl]-1-bicyclo[1.1.1]pentanyl]phenyl]-1-oxo-isoindolin-2-yl]-N-thiazol-2-yl-acetamide] | 9
2 | O=C(Nc1nccs1)C(c1ncn2c1CCC2)N1Cc2c(F)cc(-c3ccc(C45CC(CN6CCC(CO)CC6)(C4)C5)cc3)cc2C1=O (racemic) [Example 2, (2RS)-2-(6,7-Dihydro-5H-pyrrolo[1,2-c]imidazol-1-yl)-2-[4-fluoro-6-[4-[3-[[4-(hydroxymethyl)-1-piperidyl]methyl]-1-bicyclo[1.1.1]pentanyl]phenyl]-1-oxo-isoindolin-2-yl]-N-thiazol-2-yl-acetamide] | 4
3 | CN(C)CC12CC(c3ccc(-c4cc(F)c5c(c4)C(=O)N(C(C(=O)Nc4nccs4)c4ncn6c4CCC6)C5)cc3)(C1)C2 (racemic) [Example 3, (2RS)-2-(6,7-Dihydro-5H-pyrrolo[1,2-c]imidazol-1-yl)-2-[6-[4-[3-[(dimethylamino)methyl]-1-bicyclo[1.1.1]pentanyl]phenyl]-4-fluoro-1-oxo-isoindolin-2-yl]-N-thiazol-2-yl-acetamide] | 10
4 | O=C(Nc1nccs1)C(c1ncn2c1CCC2)N1Cc2c(F)cc(-c3ccc(C45CC(CN6CCC(O)CC6)(C4)C5)cc3)cc2C1=O (racemic) [Example 4, (2RS)-2-(6,7-Dihydro-5H-pyrrolo[1,2-c]imidazol-1-yl)-2-[4-fluoro-6-[4-[3-[(4-hydroxy-1-piperidyl)methyl]-1-bicyclo[1.1.1]pentanyl]phenyl]-1-oxo-isoindolin-2-yl]-N-thiazol-2-yl-acetamide] | 13
5 | O=C(Nc1nccs1)C(c1ncn2c1CCC2)N1Cc2c(F)cc(-c3ccc(C45CC(CN6CCCC6)(C4)C5)cc3)cc2C1=O (racemic) [Example 5, (2RS)-2-(6,7-Dihydro-5H-pyrrolo[1,2-c]imidazol-1-yl)-2-[4-fluoro-1-oxo-6-[4-[3-(pyrrolidin-1-ylmethyl)-1-bicyclo[1.1.1]pentanyl]phenyl]isoindolin-2-yl]-N-thiazol-2-yl-acetamide] | 13
6 | O=C(Nc1nccs1)C(c1ncn2c1CCC2)N1Cc2c(F)cc(-c3ccc(C45CC(CN6CCCC(O)CC6)(C4)C5)cc3)cc2C1=O (racemic) [Example 6, (2RS)-2-(6,7-Dihydro-5H-pyrrolo[1,2-c]imidazol-1-yl)-2-[4-fluoro-6-[4-[3-[[(4RS)-4-hydroxyazepan-1-yl]methyl]-1-bicyclo[1.1.1]pentanyl]phenyl]-1-oxo-isoindolin-2-yl]-N-thiazol-2-yl-acetamide] | 8
7 | O=C(Nc1nccs1)C(c1ncn2c1CCC2)N1Cc2c(F)cc(-c3ccc(C45CC(CN6CCC(CO)CC6)(C4)C5)cc3)c(F)c2C1=O (racemic) [Example 7, (2RS)-2-[4,7-Difluoro-6-[4-[3-[[4-(hydroxymethyl)-1-piperidyl]methyl]-1-bicyclo[1.1.1]pentanyl]phenyl]-1-oxo-isoindolin-2-yl]-2-(6,7-dihydro-5H-pyrrolo[1,2-c]imidazol-1-yl)-N-thiazol-2-yl-acetamide] | 4
